Source: patent US12534439B2, “Xanthohumol derivatives and methods for making and using” (Oregon State University, priority 2021, dated 2026)

Key:
3T3L1 cells = assay: MTT cell viability assay in differentiated 3T3L1 adipocytes; format: cell-based, murine
Procedure: To assess the toxicity of 4-(5-(4-hydroxyphenyl)-1-methyl-1h-pyrazol-3-yl)-5-methoxy-2-(3-methylbut-2-en-1-yl)benzene-1,3-diol (XP), in vitro cell viability assays were performed on several cell lines. HepG2, 3T3L1 and C2Cl2 cells were exposed to XP and cell viability was assessed using an MTT assay. At concentrations lower than 50 μM, XP had no effect on the viability of the human liver cancer cell lines HepG2 and murine myoblast cell lines C2Cl2 with respect to the control treatment (FIGS. 11A-11B). […] This establishes that XP is safe to use in vivo at dosages similar to xanthohumol.
Cell Viability Assays. Cells were seeded in 96-well plates 24 hours prior to adding the compound. HepG2 cells were seeded at a density of 5×10^4 cells/mL and C2Cl2 at 1×10^4 cells/mL in order to reach 80% confluency at the beginning of the experiment. After 24 hours, the culture medium was replaced with fresh medium containing various concentrations ranging between 0 and 200 μM of XP. The cells were incubated in the presence of the compound for 24 hours, at which time, the MTT viability assay was carried as previously described. […] The cells were incubated for 3 hours and then acidified with 100% isopropanol for 15 minutes before absorbance reading at 570 nm on a BioTek Synergy HT plate reader.

C2Cl2 cells = assay: JC-1 mitochondrial membrane potential assay; format: cell-based, murine; conditions: compared with FCCP
Procedure: Mitochondrial respiration is coupled to ATP synthesis through an electrochemical proton gradient. Proton leak across the inner membrane results in depolarization of the mitochondrial transmembrane without deleteriously lowering the ATP synthesis. Proton leak can be mediated by UCPs and leads to the dissipation of the energy derived from substrate oxidation as heat. Considering the XP and XN effect on EE, the thermogenic activity was evaluated by assessing changes in UCP1 protein expression in the skeletal muscle, BAT, and WAT of HFD-fed mice. Unexpectedly, XP had no effect in UCP1 in the skeletal muscle, BAT, or WAT of HFD-fed mice (FIG. 18A). […] Therefore, the XP intrinsic protonophore properties were investigated by measured variations of mitochondrial membrane potential (ΔψM) in C2Cl2 cells stained with JC-1 dye. […]
Measure of Metabolic Activity. […] Metabolic measurements such as EE and respiratory exchange […] (calculated from the ratio of CO2 volume produced and O2 volume consumed) were measured. Motor activity and food intake were also recorded. […] JC-1 aggregates were detected with excitation and emission wavelengths of 540 and 570 nm. JC-1 monomers were detected with excitation and emission wavelengths of 485 and 535 nm on a BioTek Synergy HT plate reader.

UCP1 = assay: Western blotting of UCP1 in skeletal muscle, BAT and WAT; format: in vivo; conditions: HFD-fed mice, versus control
Procedure: Western Blotting. Approximately 100 mg of frozen BAT and WAT was homogenized in RIPA buffer with protease and phosphatase inhibitors (Santa Cruz Biotechnology, Dallas, TX, USA). Tissues were sonicated for 30 seconds, and the homogenates were centrifuged at 15700 g for 10 minutes to collect the supernatants. Protein (30 μg) was separated by SDS-PAGE using 4-15% MP TGX Gels (Bio-Rad, Hercules, CA, USA) and blotted onto nitrocellulose membranes. The membranes were blocked with 5% nonfat milk for 90 minutes and incubated with antibodies against GAPDH (#0411, Santa Cruz Biotechnology, Dallas, TX, USA) or UCP1 (#10983, Genetex, Irvine, CA, USA) for 60 minutes. After a second reaction with secondary antibodies (horseradish peroxidase-conjugated IgG antibodies), the protein bands on the nitrocellulose membranes were visualized by enhanced chemiluminescence substrate on an electrochemical luminescence (ECL) imager (Thermo Fisher Scientific, Waltham, MA, USA). Band intensities were quantified by densitometry using Image J software.

[1] = system: LPS-activated RAW 264.7 cells; assay: Nitric oxide (NO) assay, Griess reagent; format: cell-based; conditions: LPS 1 μg/mL, 24 hours
Procedure: Nitric Oxide (NO) Assay. NO secreted by LPS-activated RAW 264.7 cells into the culture medium was determined as nitrite by the Griess reagent. RAW 264.7 1 cells obtained from the American Type Culture Collection (Manassas, VA, USA) were cultured in DMEM supplemented with 2 mM glutamine, antibiotics (100 U/mL penicillin and 100 μg/mL streptomycin), and 10% heat-inactivated fetal bovine serum. The cells were initially grown in 75 cm^2 culture flasks at 37° C. in a humidified incubator with 5% CO2. After reaching 80% confluency, the cells were split by seeding them on 96-well plates (0.2 mL/well) at a density of 1.5×10^5 cells/mL. After a 24-hour incubation at 37° C., the cells were treated with LPS (1 μg/mL) with or without test compounds in various concentrations. Vehicle control cells were treated with dimethyl sulfoxide alone at a final concentration of 0.1%. Culture media from control and treated cells were collected after 24 hours of incubation and were frozen at −80° C. before analysis. For the determination of NO (as […]), […], aliquots of the thawed culture media were mixed with an equal volume of Griess reagent on a 96-well plate. […] The samples were incubated for 10 minutes at room temperature and then the absorbance was read at 550 nm using a SpectraMax 190 (Molecular Devices, Sunnyvale, CA) plate reader.

[2] = general statement on XN; cited from earlier work

Row | Structure (SMILES) | Concentration without effect on cell viability (3T3L1 cells; 3T3L1, MTT) | Concentration at which dose-dependent reduction in cell viability occurred (3T3L1 cells; differentiated 3T3L1 adipocytes, MTT) [µM] | Effect on JC-1 aggregates/monomers ratio (C2Cl2 cells) | UCP1 protein expression in skeletal muscle, BAT, or WAT (UCP1) | Concentration from which anti-inflammatory activity (decreased NO production) was displayed [1] [µM] | UCP1 protein expression in WAT (UCP1) | UCP1 protein expression in skeletal muscle and BAT (UCP1) | Metabolism [2]
1 | COc1cc(O)c(CC=C(C)C)c(O)c1-c1cc(-c2ccc(O)cc2)n(C)n1 [XP, 4-(5-(4-hydroxyphenyl)-1-methyl-1H-pyrazol-3-yl)-5-methoxy-2-(3-methylbut-2-en-1-yl)benzene-1,3-diol] | up to 5 μM | 10 | dose-dependent and milder than that of protonophore FCCP | no effect | ≥ 10 |  |  | 
2 | COc1cc(O)c(CC=C(C)C)c(O)c1C(=O)/C=C/c1ccc(O)cc1 [XN, xanthohumol] |  |  | dose-dependent and milder than that of protonophore FCCP |  |  | decreased | no significant changes | subject to extensive phase 1 and phase 2 metabolism
